Source: patent publication US20170281642A1, “METHODS OF TREATING ACUTE MYELOID LEUKEMIA OR ACUTE LYMPHOID LEUKEMIA USING PHARMACEUTICAL COMPOSITIONS CONTAINING THIENOTRIAZOLODIAZEPINE COMPOUNDS” (ONCOETHIX GmbH, priority 2014, published 2017)
“Also recorded” adds a separate entry of the source.

Tests used:
AML and ALL cell lines [1] = experiment: apoptosis by Annexin V staining and PI uptake; format: cell-based; conditions: 72 h; for apoptotic cells: 500 nM
Description: (§1) At 500 nM compound (1-1), 30-90% of cells were apoptotic in five of nine AML cell lines (HEL, NB4, NOMO-1, OCI-AML3, KASUMI) and 50-90% in two of four ALL cell lines (JURKAT and RS4-11; FIG. 14C).

[2] = tested on: caspase-3 and cytochrome c; experiment: ex vivo caspase-3 activation and mitochondrial cytochrome c release in AML patient samples; format: cell-based, human; conditions: samples from three AML patients
Description: (§2) Apoptosis, mRNA and protein expression were evaluated in BM mononuclear cells obtained from representative newly diagnosed or relapsed ALL and AML patients, see Table 7, treated in the context of an ongoing Phase Ib study with compound (1-1) and for whom sufficient material for analysis was available. Apoptosis induction by exposure to 500 nM compound (1-1) for 72 h was variable among the patient samples tested (FIG. 15A).

BRD2 [3] = experiment: BRD2 protein expression in acute leukemia cell lines; format: cell-based; conditions: 500 nM; most cell lines (OCI-AML3, JURKAT, RS4-11, NB4, NOMO-1, HL60)
BRD2/3/4 = BRD2/3/4 expression in acute leukemia cell lines; format: cell-based; conditions: 500 nM, 48 h
c-MYC [4] = experiment: c-MYC mRNA (quantitative RT-PCR) and protein (Western blotting) expression in acute leukemia cell lines; format: cell-based; conditions: 500 nM
BRD2 [5] = experiment: ex vivo BRD2 protein expression in primary AML samples; format: cell-based, human; conditions: 500 nM, 72 h; three primary AML samples
BRD3 = BRD3 protein levels in acute leukemia cell lines; format: cell-based; conditions: 500 nM; all cell lines evaluated
AML and ALL cell lines [6] = experiment: cell cycle analysis; format: cell-based; conditions: 500 nM, 48 h
c-MYC [7] = experiment: ex vivo c-MYC mRNA and protein expression in patient samples; format: cell-based, human; conditions: 500 nM
Description: as §2

[8] = tested on: nine AML and four ALL cell lines; experiment: cell viability, MTT assay; format: cell-based
Description: Cellular effects of compound (1-1) in various acute leukemia subtypes were evaluated. Cell viability after compound (1-1) exposure was evaluated with the MTT assay in nine AML and four ALL cell lines. Significant growth inhibition, defined as submicromolar IC50, was found in six of nine AML cell lines and all four ALL cell lines tested. The K562, KG1a and HL60 AML cell lines were resistant to compound (1-1).

HEXIM1 = HEXIM1 mRNA and protein expression in acute leukemia cell lines; format: cell-based
[9] = tested on: caspase-3 and cytochrome c; experiment: caspase-3 activation and cytochrome c release in cell lines; format: cell-based; conditions: 500 nM, 72 h
Description: as §1

[10] = tested on: BM mononuclear cells from ALL and AML patients; experiment: ex vivo apoptosis in BM mononuclear cells of ALL and AML patients; format: cell-based, human; conditions: 500 nM, 72 h
Description: as §2

BRD4 = BRD4 protein expression in acute leukemia cell lines; format: cell-based; conditions: 500 nM; only OCI-AML3, NB4 and K562 cell lines

Cc1sc2c(c1C)C(c1ccc(Cl)cc1)=N[C@@H](CC(=O)Nc1ccc(O)cc1)c1nnc(C)n1-2 [compound (1-1), 2-[(6S)-4-(4-chlorophenyl)-2,3,9-trimethyl-6H-thienol[3,2-f]-[1,2,4]triazolo[4,3-a][1,4]diazepin-6-yl]-N-(4-hydroxyphenyl)acetamide dihydrate]
apoptotic cells (AML and ALL cell lines [1]; five of nine AML cell lines (HEL, NB4, NOMO-1, OCI-AML3, KASUMI)): 30-90%
apoptotic cells (AML and ALL cell lines [1]; two of four ALL cell lines (JURKAT and RS4-11)): 50-90%
apoptosis (Annexin V staining and PI uptake) (AML and ALL cell lines [1]; 25 to 500 nM): significant apoptosis
activation of caspase-3 [2]: induced activation
mitochondrial cytochrome c release [2]: induced
BRD2 protein expression (BRD2 [3]): decrease
BRD2, BRD3 and BRD4 mRNA expression (BRD2/3/4; HL60 and NOMO-1 cells): increased
BRD2, BRD3 and BRD4 mRNA expression (BRD2/3/4; K562 and NB4 cell lines): dramatically decreased
BRD2, BRD3 and BRD4 mRNA expression (BRD2/3/4; K562 cells): significantly decreased
BRD2, BRD3 and BRD4 mRNA expression (BRD2/3/4; KG1, OCI-AML3, JURKAT, BV-173 and RS4-11): mild variations
BRD2, BRD3 and BRD4 mRNA expression (BRD2/3/4; other cell lines (Example 7)): minimal to no increases
c-MYC protein levels (c-MYC [4]; 24-72 h, all cell lines evaluated other than KG1 (OCI-AML3, K562, NB4, NOMO-1, HL60, JURKAT, RS4-11), dihydrate): decreased to a variable extent; also recorded: Decreases
c-MYC gene expression (c-MYC [4]; 4 h and 24 h, same cell lines and KG1): decreased ubiquitously
c-MYC RNA levels (c-MYC [4]; 24 h, all AML and ALL cell lines (K562, HL-60, NB4, NOMO-1, KG1, OCI-AML3, JURKAT, RS4-11)): ubiquitously downregulated
BRD2 protein expression (BRD2 [5]): clearly decreased
BRD3 protein levels (BRD3): unmodified
cells in the sub-G1 phase (AML and ALL cell lines [6]; KG1a, KG1, HEL, KASUMI and JURKAT): significant increase
transition from G1 to S-phase (AML and ALL cell lines [6]; all 13 cell lines): decreased
c-MYC mRNA expression (c-MYC [7]; 48 h, seven AML samples and two ALL samples): downregulated
c-MYC protein expression (c-MYC [7]; 72 h, three primary AML samples): clearly decreased
sensitivity to compound (1-1), MTT ([8]; K562, KG1a and HL60 AML cell lines): resistant
IC50 (growth inhibition, MTT) ([8]; six of nine AML cell lines and all four ALL cell lines): submicromolar
HEXIM1 mRNA expression (HEXIM1; 500 nM, 4 and 24 h, K562, HL-60, NB4, NOMO-1, KG1, OCI-AML3, JURKAT, RS4-11): increased
HEXIM1 protein levels (HEXIM1; 500 nM, 24-72 h, OCI-AML3, JURKAT and RS4-11 cell lines, dihydrate): Increases
HEXIM1 mRNA expression (HEXIM1; 500 nM, 24 h, all cell lines except K562): increased
HEXIM1 mRNA expression, increase (HEXIM1; 500 nM, 24 h, compound (1-1) resistant K562 cells): insignificant (less than twice)
HEXIM1 upregulation, rank among cell lines (HEXIM1; OCI-AML3 and RS4-11 cell lines): highest
caspase-3 activation [9]: activated
cytochrome c release [9]: induced
apoptosis ([10]; 6 of 14 AML patients (4, 8, 9, 14, 16, 18)): no or a mild increase
increased apoptosis compared to control-treated cells ([10]; BM cells from 8 of 14 AML patients (3, 15, 17, 26, 27, 28, 31, 38)): 35-90%
apoptosis ([10]; two ALL patients (40 and 43)): no or a mild increase
BRD4 protein expression (BRD4): decreased
